Data on seven molecules can be found in paper PMC12881670, “Investigation into ligand selectivity and bias at the formyl peptide receptor family” (The Journal of Pharmacology and Experimental Therapeutics, 2025).

Where two headings read alike, the source gives them in different places. Where a SMILES comes first, the peptide text is derived from it. Where no end group is shown, it is not given here. [ ]: non-standard residue; d: D form. The star is where a group is joined. For = O=C*

Experiment [1] has as its target T1, Hs_FPR1 (Homo sapiens, UniProt P21462).
T1 construct: expressed in transfected cells
T1 sequence (P21462 1-350): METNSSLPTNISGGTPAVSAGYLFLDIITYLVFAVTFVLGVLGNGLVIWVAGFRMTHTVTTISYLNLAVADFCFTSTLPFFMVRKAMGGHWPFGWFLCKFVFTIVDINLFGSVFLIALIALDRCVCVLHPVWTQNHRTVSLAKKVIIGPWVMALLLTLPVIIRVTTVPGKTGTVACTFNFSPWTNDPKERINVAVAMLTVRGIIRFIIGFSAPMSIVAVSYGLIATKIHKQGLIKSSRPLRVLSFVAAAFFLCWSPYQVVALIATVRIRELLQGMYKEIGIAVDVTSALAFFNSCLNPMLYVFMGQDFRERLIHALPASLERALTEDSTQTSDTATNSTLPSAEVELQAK
As to the kind of experiment: BRET receptor-RLuc8 interaction with Venus-mGsi. Format: cell-based. The settings on record: for Log EC50 (M): log of EC50, HEK293 transient, 10 min; for Log EC50 (M) / Emax (%): mGsi BRET, mean, ND = no interaction detected; for Emax (%): % of response to 1 μM WKYMVm. In outline:
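RLuc8-fused FPR donor with Venus-mGsi or YFP-Arrestin 3 acceptor (1:4), transient; replate 24 h, grow 24–48 h. HBSS 30 min, coelenterazine h 5 μM final 5 min pre-compound, then 10 min 37 °C.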
(In BRET a luciferase serves as donor, and the signal depends on an acceptor being close.)

In experiment [2] the target is T2, Mm_Fpr2 (Mus musculus, UniProt O88536).
T2 construct: expressed in transfected cells
T2 sequence (O88536 1-351): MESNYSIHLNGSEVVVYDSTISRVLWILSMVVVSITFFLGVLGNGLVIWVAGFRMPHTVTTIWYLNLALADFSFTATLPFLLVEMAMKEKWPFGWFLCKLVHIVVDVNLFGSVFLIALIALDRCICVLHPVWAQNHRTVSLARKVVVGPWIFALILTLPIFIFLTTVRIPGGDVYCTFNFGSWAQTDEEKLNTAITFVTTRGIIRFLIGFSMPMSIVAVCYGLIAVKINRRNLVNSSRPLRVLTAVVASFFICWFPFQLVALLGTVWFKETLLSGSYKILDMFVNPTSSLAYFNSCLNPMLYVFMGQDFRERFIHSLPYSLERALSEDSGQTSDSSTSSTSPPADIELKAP
As to the kind of experiment: Competition binding of fluorescent WKYMVm, flow cytometry. The following applies: for Max Comp (%): maximum proportion of competition with 10 nM K(5/6-FAM)-WKYMVm; for Max Comp (%) / Log IC50 (M): mean, ND = no competition observed; for Log IC50 (M): log of IC50, competition with 10 nM K(5/6-FAM)-WKYMVm, HEK293 stable cells, on ice 90 min. The protocol: (§1) Mean cell fluorescence was then measured for 5000 cells by flow cytometry using either a BD FACScalibur or BD Attune.
(§2) All data were analyzed using GraphPad Prism using the nonlinear regression log(agonist) versus response (3 parameters) function for all assays, except binding, which was analyzed using the One site-FitlogIC50 function. Bias calculations were carried out following IUPHAR guidelines as described,[27]^,[37] and data were presented as the Δ Activity ratio (Log[EmaxB/EC50B])-(Log[EmaxA/EC50A]).

The target in experiment [3] is T3, Hs_FPR2 (Homo sapiens, UniProt P25090).
T3 construct: expressed in transfected cells
T3 sequence (P25090 1-351): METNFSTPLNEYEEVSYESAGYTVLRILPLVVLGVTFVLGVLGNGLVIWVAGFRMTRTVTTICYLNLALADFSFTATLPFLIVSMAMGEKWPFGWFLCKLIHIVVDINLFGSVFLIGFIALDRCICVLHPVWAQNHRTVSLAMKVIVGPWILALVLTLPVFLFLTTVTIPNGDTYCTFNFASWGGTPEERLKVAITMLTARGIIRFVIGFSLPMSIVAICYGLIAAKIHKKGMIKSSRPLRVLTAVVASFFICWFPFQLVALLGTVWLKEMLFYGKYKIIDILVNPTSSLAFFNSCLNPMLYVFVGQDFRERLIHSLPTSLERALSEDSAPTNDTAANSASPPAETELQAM
The description is as above. The settings on record: for Max Comp (%): maximum proportion of competition with 10 nM K(5/6-FAM)-WKYMVm; for Max Comp (%) / Log IC50 (M): mean, ND = no competition observed; for Log IC50 (M): log of IC50, competition with 10 nM K(5/6-FAM)-WKYMVm, HEK293 stable cells, on ice 90 min. The protocol: as §1, §2

The target of experiment [4] is T1, Hs_FPR1. The description is as above. The settings on record: for Max Comp (%): maximum proportion of competition with 10 nM K(5/6-FAM)-WKYMVm; for Max Comp (%) / Log IC50 (M): mean, ND = no competition observed; for Log IC50 (M): log of IC50, competition with 10 nM K(5/6-FAM)-WKYMVm, HEK293 stable cells, on ice 90 min. The protocol: as §1, §2
Experiment [5] deals with T4, Mm_Fpr1 (Mus musculus, UniProt P33766).
T4 construct: expressed in transfected cells
T4 sequence (P33766 1-364): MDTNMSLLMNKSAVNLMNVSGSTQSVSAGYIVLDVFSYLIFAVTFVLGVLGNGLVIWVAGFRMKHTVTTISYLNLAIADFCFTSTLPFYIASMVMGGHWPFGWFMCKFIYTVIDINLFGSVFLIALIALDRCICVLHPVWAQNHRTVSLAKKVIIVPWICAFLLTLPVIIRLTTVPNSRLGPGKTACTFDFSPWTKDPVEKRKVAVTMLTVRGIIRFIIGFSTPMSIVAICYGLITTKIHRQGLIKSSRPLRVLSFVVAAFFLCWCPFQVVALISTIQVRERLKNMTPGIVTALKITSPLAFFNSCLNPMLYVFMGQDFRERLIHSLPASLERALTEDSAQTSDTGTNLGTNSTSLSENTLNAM
Described as above. The settings on record: for Max Comp (%): maximum proportion of competition with 10 nM K(5/6-FAM)-WKYMVm; for Max Comp (%) / Log IC50 (M): mean, ND = no competition observed; for Log IC50 (M): log of IC50, competition with 10 nM K(5/6-FAM)-WKYMVm, HEK293 stable cells, on ice 90 min. The protocol: as §1, §2

Experiment [6] has as its system FPR2. The settings on record: read-out: EC50 arrestin recruitment, Pathhunter, cited from earlier work. (In general: Activated receptors often draw arrestin, which recruitment assays turn into a signal.)
For experiment [7], the system named is FPR1. The settings on record: at 100 nM; cited from earlier work.
The test system of experiment [8] is formyl peptide receptor family (Hs_FPR1, Hs_FPR2, Mm_Fpr1, Mm_Fpr2). As to the kind of experiment: Summary of main findings: receptor subtype selectivity and ligand bias across all readouts. The settings on record: for Bias: summary grade of ligand bias relative to WKYMVm, key not given; for Notes: summary of main findings, in words. The arrangement: species or system human and mouse. From the text:
To determine ligand bias, a reference ligand is required, that is, “balanced” for the pathways tested.[37] […] We then used measurements of the activity ratio (Log (Emax/EC50)) for each receptor, ligand, and pathway in an attempt to observe any ligand bias (Fig. 6).

Experiment [9] deals with T5, FLAG-tagged human FPR1 (Hs_FPR1) (human, UniProt P21462 1-350).
T5 construct: human formyl peptide receptor 1; cDNA purchased (cDNA.org); source: HEK293, stably expressed, on cells; not shown: FLAG, N-terminal, kept
T5 sequence (looked up): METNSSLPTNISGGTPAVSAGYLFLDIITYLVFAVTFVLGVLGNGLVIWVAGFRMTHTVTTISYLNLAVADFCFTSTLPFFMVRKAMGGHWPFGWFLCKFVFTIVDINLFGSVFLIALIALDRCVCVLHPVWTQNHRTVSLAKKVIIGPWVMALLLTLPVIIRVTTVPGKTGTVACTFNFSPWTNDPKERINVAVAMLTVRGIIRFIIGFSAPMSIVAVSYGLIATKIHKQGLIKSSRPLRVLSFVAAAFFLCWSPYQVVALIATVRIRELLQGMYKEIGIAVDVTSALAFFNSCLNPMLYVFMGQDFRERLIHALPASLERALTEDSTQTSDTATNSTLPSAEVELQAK
As to the kind of experiment: flow cytometry on cells; competition binding: HEK293 cells stably expressing the receptor, lifted in PBS, on ice 90 min with 10 nM K(5/6-FAM)-WKYMVm and increasing unlabeled ligand; mean fluorescence of 5000 cells as % of that without competitor; One site-Fit logIC50. A general note: Flow cytometry measures light scatter and fluorescence of single cells or particles in a stream.

`CSCC[C@H](NC(=O)[C@H](Cc1ccc(O)cc1)NC(=O)[C@H](CCCCN)NC(=O)[C@@H](N)Cc1c[nH]c2ccccc12)C(=O)N[C@H](C(=O)N[C@H](CCSC)C(N)=O)C(C)C` [WKYMVm] yielded a maximal effect (Emax) in experiment [1] of 112%.

With `CSCC[C@H](NC=O)C(=O)N[C@@H](CC(C)C)C(=O)N[C@@H](Cc1ccccc1)C(=O)N[C@@H](CCCCN)C(=O)O` [fMLFK, fMet-Leu-Phe-Lys] (For-MLFK-OH), the half-maximal inhibitory concentration (IC50) is 828 nM in experiment [2], 1.47 nM in experiment [3], 586 nM in experiment [4] and 8260 nM in experiment [5]. Further, the “Max Comp (%)” value in [2] is given as 30.81%; in experiment [3] it was 14.72%; in experiment [4], 63.28%; in experiment [5], 72.44%. Moreover, in [1], the midpoint of the response, the EC50, lay at 85.1 nM. In experiment [1], this molecule showed a maximum response (Emax) of 104%.

Regarding `Cc1cccc(-c2oc(C)nc2C(=O)Nc2cnn(Cc3nc(C(C)(F)F)co3)n2)c1` [ACT-389949], in [6] (FPR2), the EC50 is 20 nM. The “Log IC50 (M)” value was −7.192 M in [2], −7.434 M in [3], −5.265 M in experiment [4] and −7.070 M in [5]. Besides, the “Max Comp (%)” value in experiment [2] turned out to be 80.31%; in [3], 94.77%; in experiment [4], 80.70%; in experiment [5], 25.96%. Further, the “Log EC50 (M)” value in experiment [1] is −6.47 M. Moreover, in [1], the “Emax (%)” value is recorded as 60.56%. Further, the “arrestin recruitment to FPR1, Pathhunter” value in experiment [7] is “neither WKYMVM nor ACT-389949 resulted in recruitment”. Moreover, in experiment [8], the Bias result is reported as “No”.

As for `CCCCOc1ccc(C(=O)NN2C(=O)c3ccccc3NC2c2ccc(OC)cc2)cc1` (centres unmarked) [QuinC1], in [2], the “Log IC50 (M)” value is listed as −7.98 M and the “Max Comp (%)” value is 27.99%. In [3], the “Log IC50 (M)” value is −7.399 M and the “Max Comp (%)” value stood at 13.23%. Moreover, in [4], the “Log IC50 (M)” value is given as −7.943 M and the “Max Comp (%)” value is recorded as 9.96%. In experiment [5], the “Log IC50 (M)” value was −6.114 M and the “Max Comp (%)” value came to 52.13%. In addition, in [1], the “Log EC50 (M)” value was −5.34 M and the “Emax (%)” value came out at 17.60%. Also, in [8], the Bias entry is listed as “No” and the Notes entry was “Partial/weak only”.

With LESIFRSLLFRVM [MMK1], in experiment [3], the “Log IC50 (M)” value is −5.88 M and the “Max Comp (%)” value was 100%. In addition, in [4], the “Log IC50 (M)” value was −10.05 M and the “Max Comp (%)” value was found to be 6.82%. Also, in [8], the Bias result was “No” and the Notes result is “Only activity at Hs_FPR2”.

As to `COc1cc(F)c([C@@H]2CNC(=O)[C@H]2NC(=O)Nc2ccccc2)c(F)c1` [BMS-986235], the 50% effective concentration (EC50) in [6] (Hs_FPR2) was 130 nM. In experiment [2], the IC50 is 72.6 nM and the “Max Comp (%)” value came out at 78.55%. In experiment [3], the concentration for half-maximal inhibition (IC50) was 2440 nM and the “Max Comp (%)” value is 60.14%. The “competition with K(5/6-FAM)-WKYMVm” value in experiment [3] (at 10 μM, incomplete competition) was around 50%. Further, in experiment [5], the IC50 was 1120 nM and the “Max Comp (%)” value is on record as 37.54%. In experiment [1], this molecule gave an EC50 of 2240 nM and a maximum response (Emax) of 7.4%. In addition, in [8], the Bias result is “+ (Hs_FPR2)” and the Notes result was “Bias against internalization”.

B1: WKYMVm (peptide)
peptide: WKYMV[dM]
notes: the last residue is the D form; the bought peptide is probably also an amide (surmise); source: bought: Tocris
In the case of B1, in experiment [9], the “Log IC50” value was -7.42 log M and the “Max Comp (%)” value was 96.8%.

As a reminder, the Emax is the greatest response seen or fitted, relative to the assay's reference. For orientation: IC50 means the concentration that gives 50% inhibition. As a reminder, the EC50 is the concentration at which the effect is half-maximal.
